# According to US12616665B2, “Neutrophil-to-lymphocyte ratio decreasing agent” (THERABIOPHARMA INC., priority 2020, dated 2026):
# System: neutrophil-to-lymphocyte ratio in blood
# Experiment: Neutrophil-to-lymphocyte ratio in venous blood after four weeks of curcumin-containing capsule intake
# Type: in vivo, human
# Description: Each of 20 men and women of 60 years old or older was caused to take a curcumin-containing capsule (containing 90 mg of curcumin per capsule) twice a day in the morning and the evening for four weeks (daily dose 180 mg). Venous blood was collected at start and end of administration, and a neutrophil-to-lymphocyte ratio was measured.
# As a result, in a non-parametric test (Wilcoxon code rank test), the neutrophil-to-lymphocyte ratio at start of administration was 1.7 (1.3, 2.1), whereas the neutrophil-to-lymphocyte ratio at end of administration was 1.4 (1.2, 1.7).
smiles,measurement,setting,value
COc1cc(/C=C/C(=O)/C=C(O)/C=C/c2ccc(O)c(OC)c2)ccc1O [curcumin],neutrophil-to-lymphocyte ratio at end of administration,"after four weeks, 90 mg curcumin capsule twice a day (daily dose 180 mg), oral, 20 men and women of 60 years old or older, venous blood","1.4 (1.2, 1.7)"
same,neutrophil-to-lymphocyte ratio at start of administration,"baseline, 20 men and women of 60 years old or older, venous blood, spread in brackets not defined","1.7 (1.3, 2.1)"
same,"change of neutrophil-to-lymphocyte ratio, start vs end of administration","four weeks, daily dose 180 mg, non-parametric test (Wilcoxon code rank test)",significantly decreased
